Read-outs that look alike come from different tables or passages of the source.
Experiments:
[1] = Plasma levels of IVA, TEZ and ELX by LC-MS/MS in pediatric cystic fibrosis patients at steady state on Kaftrio; format: in vivo, human; settings: for Cmax at 4 h / AUC(0-t): both sexes, human, plasma, oral; for Cmax at 4 h / Plasma concentration T0 (Ctrough), 25th Percentile / Plasma concentration T0 (Ctrough), 75th Percentile / Plasma concentration T0 (Ctrough), Median: steady state; for Cmax at 4 h: 4 h after morning Kaftrio dose; for Plasma concentration T0 (Ctrough), 25th Percentile / Plasma concentration T0 (Ctrough), 75th Percentile / Plasma concentration T0 (Ctrough), Median: before morning Kaftrio dose
Experimental: The clinical performance of our validated method was tested on n = 25 samples from pediatric patients affected by cystic fibrosis. Table 5 reports plasma concentrations of IVA, TEZ and ELX measured before (T0) and 4 h after (T4) the morning dose assumption of Kaftrio® (corresponding to IVA Tmax). For IVA, the plasma concentration at 12 h (T12) was obtained by using C4h*e^−β(t12−t4), and the AUC0–12h was calculated to assess the systemic exposure within the interval between two doses (Table 5). Thereafter, AUC0–12h values were multiplied by 2 in order to perform a regression analysis of T0 concentrations versus AUC0–24h.
The clinical applicability of our validated method was tested on n = 25 plasma samples from pediatric patients with a median (range) age of 9.5 (7–17) years and affected by cystic fibrosis (CF). These patients (n = 14 males and n = 11 females) were followed-up during the routine clinical practice at Pneumology and Cystic Fibrosis Unit of Bambino Gesù Children’s Hospital, and were concomitantly receiving therapies with pancreatic enzymes, bronchodilators, antibiotics (including carbapenems, macrolides, beta-lactams, lipopeptides, fluoroquinolones) and proton pump inhibitors.
In order to evaluate systemic exposure to each CFTR modulator, drug levels were measured at steady-state by collecting EDTA–whole blood samples before (T0, corresponding to the minimum plasma concentration, Ctrough,) and 4 h after the morning dose intake (T4, corresponding to the maximum concentration, Cmax). After centrifugation at 3500 rcf for 5 min, plasma was recovered from whole blood samples. Plasma samples were collected and stored at −80 °C until analysis.
According to the Kaftrio® summary of product characteristics (SmPC), patients received a morning dose consisting of two ivacaftor 75 mg/tezacaftor, 50 mg/elexacaftor, 100 mg tablets, whereas one ivacaftor 150 mg tablet was taken in the evening (every 12 h).
Elexacaftor/tezacaftor/ivacaftor plasma levels were determined using high-performance liquid chromatography (HPLC) coupled to mass spectrometry (MS/MS). EDTA–whole blood samples were collected before (T0) and 4 h after (T4) morning drug intake. Analysis of Kaftrio® plasma levels was performed at Division of Metabolic Diseases and Drug Biology of Bambino Gesù Children’s Hospital, IRCCS, in Rome (Italy). The liquid chromatography (LC) system consisted of an UHPLC Agilent 1290 Infinity II (Agilent Technologies, Deutschland GmbH, Waldbronn, Germany). Gradient chromatographic separation was performed in reverse phase mode with a Luna Omega 1.60 µm Polar C18 (100 × 2.1 mm) column (Phenomenex) maintained at 40 °C, with mobile phase A (0.1% formic acid (FA) in water) and mobile phase B (0.1% formic acid and 25% of 2-propanol in ACN). The flow rate of mobile phases was 0.4 mL/min. The duration of each chromatographic run was 10.50 min.
The volume injected was 1 μL. Detection of IVA, IVA-d9, TEZ, TEZ-d4, ELX and ELX-d3 was carried out using a 6470 Mass Spectrometry system (Agilent Technologies, Deutschland GmbH, Waldbronn, Germany) equipped with an ESI-JET-STREAM source operating in the positive ion (ESI+) mode. Mass spectrometric conditions were as follows: Gas Temperature 350 °C, Gas Flow 9 L/min, Sheath Gas Temperature 300 °C, Sheath Gas Flow 9 L/min, Capillary 4000 V, Nebulizer 35 psi.
A 10 µL measure of IS working solution with IVA-d9, TEZ-d4 and ELX-d3 was added to 50 µL of plasma or CAL or QC or blank sample in darkened tubes. After vortexing for 5 s, 300 µL of pure ACN were added to each sample. Samples were mixed for 60 s and centrifuged at 13,000 rpm for 9 min at room temperature. Thereafter, 200 µL of supernatant were collected in amber glass vials and injected into the UHPLC-MS/MS system.
Demographic data and PK parameters were analyzed using descriptive statistics. The median with interquartile range (IQR) was used to describe Ctrough levels. […]

[2] = parameters: method as in PMID 38494378; settings: cited from earlier work
[3] = parameters: method as in PMID 36015300; settings: cited from earlier work
[4] = parameters: method as in ref 18 = [18]; 18. U.S. Food and Drug Administration Center for Drug Evaluation and Research: Nda/Bla, Multi-Disciplinary Review and Evaluation, Lumacaftor/Ivacaftor Available online: https://www.accessdata.fda.gov/; settings: Trikafta drug registration documents; cited from earlier work
[5] = parameters: method as in ref 22 = [22]; 22. Kaftrio®, Summary of Product Characteristics (SmPC), European Medicine Agency (EMA) Available online: https://www.ema.europa.eu/en/medicines/human/EPAR/kaftrio (accessed on 3 March 2024); settings: cited from earlier work
[6] = parameters: method as in PMID 40245791; settings: H-QC, after sample preparation; cited from earlier work
[7] = Stability of prepared QC samples after one cycle of freezing (−80 °C) and thawing; format: physicochemical; settings: low-, medium- and high-QC samples, thawed after 12 days
Experimental: (§1) We have also evaluated the stability of prepared low-, medium- and high-QC samples following one cycle of freezing (−80 °C) and thawing (after 12 days). The calculated stability for ivacaftor, tezacaftor and elexacaftor was 100–107% after 12 days. Patient samples (n = 3 T0 and T4) were randomly selected and re-analyzed after being stored at −80 °C over a period of five months. Compared to the first measurement (time 0), the stability ranged from 85.48 ± 19.83% (mean ± SD) for IVA T4 to 90.55 ± 2.42% for ELX T0 (Supplementary Table S2). Autosampler stability was tested by analyzing IVA, TEZ and ELX concentrations in QCs maintained at room temperature at time 0 (corresponding to preparation of QC samples and to the first measurement) and after 24 h (short-term stability) or 9 days (long-term stability). We also evaluated, on prepared low-, medium- and high-QC samples, the stability following one cycle of freezing (−80 °C) and thawing (after 12 days). To further assess long-term stability, n = 3 T0 and T4 of authentic samples, stored at −80 °C over a period of five months, were randomly chosen and re-analyzed. The percentage difference between the concentration measured at each sampling point and the initial concentration was calculated. Based on ICH guideline M10, a percentage difference below the 15% was considered acceptable.

[8] = Short- and long-term autosampler stability of prepared QC samples at room temperature; format: physicochemical; settings: for Stability (%): autosampler; for 9-day autosampler stability: across L-, M- and H-QC levels
Experimental: Both short- and long-term stability were evaluated on prepared QC samples kept at room temperature for a maximum of 9 days. After 24 h from QC sample preparation and first assessment (Time 0), the stability was around 100% for all QC samples. […] Autosampler stability was tested by analyzing IVA, TEZ and ELX concentrations in QCs maintained at room temperature at time 0 (corresponding to preparation of QC samples and to the first measurement) and after 24 h (short-term stability) or 9 days (long-term stability). We also evaluated, on prepared low-, medium- and high-QC samples, the stability following one cycle of freezing (−80 °C) and thawing (after 12 days). To further assess long-term stability, n = 3 T0 and T4 of authentic samples, stored at −80 °C over a period of five months, were randomly chosen and re-analyzed. The percentage difference between the concentration measured at each sampling point and the initial concentration was calculated. Based on ICH guideline M10, a percentage difference below the 15% was considered acceptable.

[9] = Long-term −80 °C stability of authentic patient plasma samples; format: physicochemical, human; settings: for Stability, % of the first measurement: n = 3 T0 and T4 patients' samples, −80 °C, five months; for Stability (%) mean ± SD, T0 samples / Stability (%) mean ± SD, T4 samples: patient plasma n = 3, stored at −80 °C, 5 months vs Time 0
Experimental: as §1

[10] = parameters: method as in PMID 36831163; settings: cited from earlier work
CFTR = tested on: CFTR; parameters: method as in PMID 36015300; settings: cited from earlier work
[11] = n = 25 pediatric CF patients, read-out: Plasma concentration T4 (Cmax), 25th Percentile
[12] = n = 25 pediatric CF patients, read-out: Plasma concentration T4 (Cmax), 75th Percentile
[13] = n = 25 pediatric CF patients, read-out: Plasma concentration T4 (Cmax), Median
[14] = H-QC (18 µg/mL), 24 H vs Time 0
[15] = H-QC (18 µg/mL), Day 9 vs Time 0
[16] = L-QC (0.3 µg/mL), 24 H vs Time 0
[17] = L-QC (0.3 µg/mL), Day 9 vs Time 0
[18] = M-QC (8 µg/mL), Day 9 vs Time 0
[19] = Kaftrio drug registration documents

| SMILES | Cmax at 4 h [1, 11] [ng/mL] | Cmax at 4 h [1, 12] [ng/mL] | Cmax at 4 h [1, 13] [ng/mL] | Plasma concentration T0 (Ctrough), 25th Percentile ([1]; n = 25 pediatric CF patients) [ng/mL] | Plasma concentration T0 (Ctrough), 75th Percentile ([1]; n = 25 pediatric CF patients) [ng/mL] | Plasma concentration T0 (Ctrough), Median ([1]; n = 25 pediatric CF patients) [ng/mL] | Minimum concentration (Cmin), median (range) [2] [ng/mL] | Tmax [3] [h] | Ctrough (Cmin), mean ± SD [4] [ng/mL] | Remaining % after ten days in the autosampler [6] [%] | Stability after one cycle of freezing and thawing [7] | Stability (%) [8, 14] [%] | Stability (%) [8, 15] [%] | Stability (%) [8, 16] [%] | Stability (%) [8, 17] [%] | Stability (%) ([8]; M-QC (8 µg/mL), 24 H vs Time 0) | Stability (%) [8, 18] [%] | Stability, % of the first measurement [9] | Stability (%) mean ± SD, T0 samples [9] [%] | Stability (%) mean ± SD, T4 samples [9] [%] | further results |
| --- | --- | --- | --- | --- | --- | --- | --- | --- | --- | --- | --- | --- | --- | --- | --- | --- | --- | --- | --- | --- | --- |
| CC(C)(CO)c1cc2cc(NC(=O)C3(c4ccc5c(c4)OC(F)(F)O5)CC3)c(F)cc2n1C[C@@H](O)CO [TEZ, Tezacaftor] | 3750 | 6320 | 4520 | 720 | 1870 | 1370 | 1300 | 3 | 2100 ± 820 | 99.8 | 100–107% | 101.39 | 105.83 | 96.55 | 103.79 | 100.12 | 105.32 | higher than 85% | 89.35 ± 4.87 | 85.51 ± 11.87 | Effect of simultaneous ingestion of fatty food on exposure ([5]; Kaftrio SmPC): not affected |
| CC(C)(C)c1cc(C(C)(C)C)c(NC(=O)c2c[nH]c3ccccc3c2=O)cc1O [IVA, Ivacaftor] | 1070 | 2430 | 1490 | 370 | 1340 | 790 |  |  | 630 ± 260 | 88 | 100–107% | 101.29 | 73.54 | 101.51 | 75.75 | 99.88 | 78.27 | higher than 85% | 86.96 ± 3.98 | 85.48 ± 19.83 | AUC(0-t) ([1]; n = 25 pediatric CF patients, C12h estimated as C4h*e^−β(t12−t4), read-out: Measured AUC0–12h, 25th Percentile): 7930 ng·h/mL; AUC(0-t) ([1]; n = 25 pediatric CF patients, C12h estimated as C4h*e^−β(t12−t4), read-out: Measured AUC0–12h, 75th Percentile): 19400 ng·h/mL; AUC(0-t) ([1]; n = 25 pediatric CF patients, C12h estimated as C4h*e^−β(t12−t4), read-out: Measured AUC0–12h, Median): 11400 ng·h/mL; Back-calculated Ctrough (T0), median (IQR) ([1]; from regression equation of AUC0–24h versus Ctrough (y = 27.6 * x + 4.30)): 0.80 (0.42–1.32) µg/mL; Measured AUC0–12h, 25th Percentile ([1]; n = 25 pediatric CF patients, C12h estimated as C4h*e^−β(t12−t4)): 5330 ng·h/mL; Back-calculated Ctrough, mean ± 1.96 SD [2]: 700 ng/mL; Ctrough, mean ± SD ([10]; adult patients): 900 ± 370 ng/mL; Ctrough, mean ± SD ([10]; children): 710 ± 200 ng/mL; AUC0–12h, mean ± SD [5, 19]: 11700 ± 4010 ng·h/mL; Cmax, mean ± SD [5, 19]: 1240 ± 340 ng/mL; 9-day autosampler stability ([8]; 9 days from day 0): 76%; 9-day autosampler stability ([8]; 9 days from day 0, listed as ivacaftor): 73.54–78.27% |
| Cc1nn(C)cc1S(=O)(=O)NC(=O)c1ccc(-n2ccc(OCC(C)(C)C(F)(F)F)n2)nc1N1C[C@@H](C)CC1(C)C [ELX, Elexacaftor] | 13300 | 24100 | 17800 | 5820 | 12940 | 8730 | 2800 | 6 | 4050 ± 2070 | 99.8 | 100–107% | 98.74 | 114.46 | 101.72 | 113.79 | 99.76 | 113.09 | higher than 85% | 90.55 ± 2.42 | 89.18 ± 18.05 |  |
| CC(C)(C)c1cc(C(C)(C)CO)c(O)cc1NC(=O)c1c[nH]c2ccccc2c1=O [M1-IVA, hydroxymethyl ivacaftor] |  |  |  |  |  |  |  |  |  |  |  |  |  |  |  |  |  |  |  |  | Potency of metabolite relative to parent compound (CFTR): 1/6 |
